Patent US8450333B2, “Molecules for regulating cell death” (The Regents of The University of California, priority 2003, dated 2013)

Experiments:
recombinant Dnm1 = biological target: T1, recombinant Dnm1 (Saccharomyces cerevisiae, UniProt P54861); assay: Dnm1 GTPase activity, radioactive TLC-based assay; format: biochemical, yeast
T1 construct: made in house; host or cells: insect cells (baculovirus expression system)
T1 sequence (P54861 1-757): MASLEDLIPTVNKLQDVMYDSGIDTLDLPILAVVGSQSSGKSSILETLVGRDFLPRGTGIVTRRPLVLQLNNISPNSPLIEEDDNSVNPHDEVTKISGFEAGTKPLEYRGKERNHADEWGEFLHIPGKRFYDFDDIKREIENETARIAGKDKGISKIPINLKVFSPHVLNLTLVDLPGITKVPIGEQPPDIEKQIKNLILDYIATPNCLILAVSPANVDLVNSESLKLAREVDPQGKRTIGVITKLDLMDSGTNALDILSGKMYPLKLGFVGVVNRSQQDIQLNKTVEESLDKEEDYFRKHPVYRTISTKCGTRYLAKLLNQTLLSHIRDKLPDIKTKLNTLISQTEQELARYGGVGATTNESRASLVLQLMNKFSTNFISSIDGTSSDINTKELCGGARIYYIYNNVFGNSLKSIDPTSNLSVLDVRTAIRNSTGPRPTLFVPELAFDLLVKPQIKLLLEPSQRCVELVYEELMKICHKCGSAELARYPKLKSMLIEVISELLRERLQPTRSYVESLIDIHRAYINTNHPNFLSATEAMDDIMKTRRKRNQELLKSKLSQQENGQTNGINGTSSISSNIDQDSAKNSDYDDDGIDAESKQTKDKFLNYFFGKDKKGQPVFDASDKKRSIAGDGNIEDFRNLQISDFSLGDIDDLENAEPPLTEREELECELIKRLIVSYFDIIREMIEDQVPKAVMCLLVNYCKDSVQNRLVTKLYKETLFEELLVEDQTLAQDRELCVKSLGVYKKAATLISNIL
Description: In order to discern a detailed mechanism for mitochondrial fission, we have begun to purify and characterize activities associated with known fission components, with the ultimate goal of reconstituting this event in vitro. Towards this goal, we have successfully expressed and purified active recombinant Dnm1 (the yeast mitochondrial fission DRP) from insect cells, using a baculovirus expression system. Using an established radioactive TLC-based assay for GTPase activity, we characterized the kinetic properties of recombinant Dnm1 under low salt conditions (FIG. 10A). […] The Km for GTP for Dnm1 is near 200 μM, greater than that observed for assembled dynamin (˜10 μM). The significance of this difference as it relates to the function of these DRPs will be interesting to determine.
Determining the mechanism of mfisi-1 inhibition is critical for assessing how DRPs function in mitochondrial fission. We will perform standard steady-state kinetic assays to determine the mechanism of inhibition by mfisi-1 using established GTPase assays in the presence of variable concentrations of substrate (GTP) and mfisi-1. […] Nucleotides are resolved using thin layer chromatography, and quantification of GTP and GDP product is performed using a Phosphorimager. All rates are calculated using time points where product formation is linear over time.

mammalian COS cells = assay: Mitochondrial fragmentation induced by staurosporine (STS) in COS cells; format: cell-based; conditions: COS cells stimulated with STS; mfisi-1 at 50 μM; n=100
Description: As indicated above, we observed that mfisi-1 causes changes in mitochondrial morphology in mammalian cells that are consistent with a block in mitochondrial fission. Thus, we examined the effects of mfisi-1 on mitochondrial fragmentation caused by the intrinsic apoptotic stimulus staurosporine (STS) in mammalian COS cells. […] These observations indicate that mfisi-1 retards apoptosis-stimulated Drp1-dependent mitochondrial fission.

[1] = tested on: actin cytoskeleton and peripheral ER network; assay: Actin cytoskeleton and peripheral ER network in yeast; format: cell-based; conditions: 100 μM, versus DMSO-treated cells, n=50
Description: These structures are routinely examined in yeast mitochondrial morphology mutants as a test for the specificity of the mitochondrial phenotype.

yeast cells = assay: Time-lapse fluorescence microscopy of mitochondrial fission and fusion events in yeast; format: cell-based, S. cerevisiae; conditions: time-lapse after drug addition
Description: To distinguish whether compounds specifically affect mitochondrial fission or fusion, we directly measure the rates of these events by examining the behavior of mitochondria using time-lapse fluorescence microscopy after drug addition. We routinely perform this type of experiment using a DeltaVision deconvolution microscope.
Formally, the small molecules we identified could produce their phenotypes by either inhibiting or activating fission or fusion. To distinguish the exact effects of mfisi-1 and other small molecules identified in our screens on mitochondrial dynamics, we have directly measured the rates of fission and fusion events after drug addition in yeast cells by examining the behavior of mitochondria using time-lapse fluorescence microscopy. […] In contrast, in DMSO treated control cells, both fission and fusion events were easily detected in the same time frame.

SMILES: COc1cc(-n2c(S)nc3ccccc3c2=O)c(Cl)cc1Cl [mfisi-1, 3-(2,4-Dichloro-5-methoxy-phenyl)-2-mercapto-3H-quinazolin-4-one]
- IC50 (recombinant Dnm1): ~10 µM
- mode of inhibition versus GTP (recombinant Dnm1; mfisi-1 at its IC50, GTP 10 μM-2 mM): NOT a pure competitive inhibitor
- % collapsed nets (mammalian COS cells): 0%
- % fragmented (mammalian COS cells): 46%
- % loose nets (mammalian COS cells): 8%
- % reticular (mammalian COS cells): 46%
- changes in actin cytoskeleton or peripheral ER network [1]: did not result in significant changes
- mitochondrial fission events / rate of fission (yeast cells): no detectable fission events were observed
- mitochondrial fusion events / rate of fusion (yeast cells): fusion events occurred
